Patent publication US20180339024A1, “PEPTIDES WITH ANTI-ANGIOGENIC, ANTI-LYMPHANGIOGENIC, AND ANTI-EDEMIC PROPERTIES AND NANOPARTICLE FORMULATIONS” (Asclepix Therapeutics, LLC, priority 2015, published 2018)
“Also recorded” adds a separate entry of the source.

Key:
α5β1 integrin = α5β1 integrin (Homo sapiens, UniProt P05556+P08648); test: Target identification of P07 (α5β1); format: binding
[1] = test system: VEGF induced neovascularization and leakage; test: Mouse models of retinal and choroidal neovascularization and vascular leakage; format: in vivo
αVβ3 integrin = αVβ3 integrin (Homo sapiens, UniProt P05106+P06756); test: Target identification of P07 (αVβ3); format: binding
[2] = test system: hepatocyte growth factor receptor (HGFR or c-met); test: P07 inhibition of HGF receptor signaling in microvascular endothelial cells; format: cell-based; conditions: FIG. 1
Text: (§1) Integrins function as co-receptors for many growth factor receptors such as VEGFR, hepatocyte growth factor receptor (HGFR or c-met), insulin-like growth factor receptor (IGFR), and platelet derived growth factor receptor (PDGFR).

[3] = test system: insulin-like growth factor receptor (IGFR); test: P07 inhibition of IGF receptor signaling in microvascular endothelial cells; format: cell-based; conditions: FIG. 1
Text: as §1

[4] = test system: orthotopic triple-negative breast cancer (TNBC) xenografts; test: Orthotopic triple-negative breast cancer xenografts; format: in vivo
[5] = test system: platelet derived growth factor receptor (PDGFR); test: P07 inhibition of PDGF receptor signaling; format: cell-based
Text: as §1

[6] = test system: transgenic mouse over-expressing the human form of vascular endothelial growth factor (VEGF) in the retina; test: Vascular leakage and retinal detachment in transgenic mouse over-expressing human VEGF in the retina; format: in vivo
Text: The vascular leakage in this model is so severe that the blood that pools behind the retina causes retinal detachment.

glioblastoma xenografts = test: Glioblastoma xenografts; format: in vivo; conditions: not shown
[7] = test system: small cell lung cancer (SCLC) xenografts; test: Small cell lung cancer xenografts; format: in vivo; conditions: not shown
[8] = test system: rabbit eye, human VEGF induced leakage; test: VEGF induced vascular leakage (edema) model in the rabbit eye; format: in vivo; conditions: about 50 μg P07 in the eye prior to VEGF injection, fluorescein i.v. 3 days after VEGF, FIG. 3
Description: P07 was also tested in a model of edema in the rabbit eye. In this model human VEGF was injected directly into the eye causing the local vasculature to be leaky. The extent of this leak was assessed by measuring the amount of fluorescence in the eye resulting from the leakage of sodium fluorescein administered intravenously 3 days after VEGF injection.

[9] = test system: vascular endothelial growth factor receptor (VEGFR); test: P07 inhibition of VEGF receptor signaling in microvascular endothelial cells; format: cell-based; conditions: FIG. 1
Text: as §1

[10] = Size characterization, Malvern Zetasizer Nano ZS90; format: physicochemical; conditions: 1 mg/ml in water
Description: N07 was suspended in water at 1 mg/ml and analyzed using a Malvern Zetasizer Nano ZS90. Z-average diameter and intensity-based size distribution were measured and recorded.

α5β1 integrin, sequence (P08648 42-894 limits assumed): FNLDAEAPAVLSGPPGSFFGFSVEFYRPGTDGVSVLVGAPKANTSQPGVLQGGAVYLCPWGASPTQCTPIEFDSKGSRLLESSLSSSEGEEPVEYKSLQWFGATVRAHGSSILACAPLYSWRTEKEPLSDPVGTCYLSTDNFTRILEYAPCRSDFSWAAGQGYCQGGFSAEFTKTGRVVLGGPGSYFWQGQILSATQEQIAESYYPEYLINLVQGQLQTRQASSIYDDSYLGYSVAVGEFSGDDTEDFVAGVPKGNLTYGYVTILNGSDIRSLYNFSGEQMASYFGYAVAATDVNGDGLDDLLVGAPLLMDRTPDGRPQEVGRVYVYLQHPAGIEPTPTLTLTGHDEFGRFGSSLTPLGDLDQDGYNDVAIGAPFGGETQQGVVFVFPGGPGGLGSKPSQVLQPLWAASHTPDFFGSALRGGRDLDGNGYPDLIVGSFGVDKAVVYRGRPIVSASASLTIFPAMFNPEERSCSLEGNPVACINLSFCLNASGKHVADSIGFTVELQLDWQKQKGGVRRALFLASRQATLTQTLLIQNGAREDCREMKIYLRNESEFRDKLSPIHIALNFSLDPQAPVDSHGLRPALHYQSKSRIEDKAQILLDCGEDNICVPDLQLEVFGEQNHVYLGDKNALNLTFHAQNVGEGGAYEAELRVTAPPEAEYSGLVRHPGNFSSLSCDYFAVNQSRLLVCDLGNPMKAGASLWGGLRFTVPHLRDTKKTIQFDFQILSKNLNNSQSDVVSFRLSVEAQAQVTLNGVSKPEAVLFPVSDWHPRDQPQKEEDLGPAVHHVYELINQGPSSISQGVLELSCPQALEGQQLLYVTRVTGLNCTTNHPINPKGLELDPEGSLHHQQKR
α5β1 integrin, sequence (P08648 895-1049 partner limits assumed): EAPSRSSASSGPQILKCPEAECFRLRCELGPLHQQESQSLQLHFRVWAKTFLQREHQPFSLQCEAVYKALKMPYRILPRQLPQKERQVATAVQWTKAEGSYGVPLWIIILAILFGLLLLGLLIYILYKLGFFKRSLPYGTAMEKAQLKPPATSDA
α5β1 integrin, sequence (P05556 21-798): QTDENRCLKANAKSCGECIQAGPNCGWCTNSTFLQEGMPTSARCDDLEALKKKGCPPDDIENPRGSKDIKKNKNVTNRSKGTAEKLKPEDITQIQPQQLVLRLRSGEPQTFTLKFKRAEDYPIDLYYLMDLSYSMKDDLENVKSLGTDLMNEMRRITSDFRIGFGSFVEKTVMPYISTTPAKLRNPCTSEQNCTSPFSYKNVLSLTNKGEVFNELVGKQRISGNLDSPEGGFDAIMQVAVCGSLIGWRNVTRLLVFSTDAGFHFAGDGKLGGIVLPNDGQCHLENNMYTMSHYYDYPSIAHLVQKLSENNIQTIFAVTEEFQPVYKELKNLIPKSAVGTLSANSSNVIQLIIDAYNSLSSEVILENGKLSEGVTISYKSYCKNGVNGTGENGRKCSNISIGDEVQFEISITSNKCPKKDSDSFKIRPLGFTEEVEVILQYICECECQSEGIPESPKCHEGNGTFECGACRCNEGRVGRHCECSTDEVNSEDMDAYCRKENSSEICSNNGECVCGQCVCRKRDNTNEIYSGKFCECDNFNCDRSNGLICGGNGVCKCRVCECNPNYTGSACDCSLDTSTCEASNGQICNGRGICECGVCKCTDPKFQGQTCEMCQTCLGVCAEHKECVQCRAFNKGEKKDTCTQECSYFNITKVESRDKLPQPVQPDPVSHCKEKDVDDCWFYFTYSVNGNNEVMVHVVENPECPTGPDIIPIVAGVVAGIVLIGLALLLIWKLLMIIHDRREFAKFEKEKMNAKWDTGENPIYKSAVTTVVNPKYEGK
αVβ3 integrin, sequence (P06756 31-889 limits assumed): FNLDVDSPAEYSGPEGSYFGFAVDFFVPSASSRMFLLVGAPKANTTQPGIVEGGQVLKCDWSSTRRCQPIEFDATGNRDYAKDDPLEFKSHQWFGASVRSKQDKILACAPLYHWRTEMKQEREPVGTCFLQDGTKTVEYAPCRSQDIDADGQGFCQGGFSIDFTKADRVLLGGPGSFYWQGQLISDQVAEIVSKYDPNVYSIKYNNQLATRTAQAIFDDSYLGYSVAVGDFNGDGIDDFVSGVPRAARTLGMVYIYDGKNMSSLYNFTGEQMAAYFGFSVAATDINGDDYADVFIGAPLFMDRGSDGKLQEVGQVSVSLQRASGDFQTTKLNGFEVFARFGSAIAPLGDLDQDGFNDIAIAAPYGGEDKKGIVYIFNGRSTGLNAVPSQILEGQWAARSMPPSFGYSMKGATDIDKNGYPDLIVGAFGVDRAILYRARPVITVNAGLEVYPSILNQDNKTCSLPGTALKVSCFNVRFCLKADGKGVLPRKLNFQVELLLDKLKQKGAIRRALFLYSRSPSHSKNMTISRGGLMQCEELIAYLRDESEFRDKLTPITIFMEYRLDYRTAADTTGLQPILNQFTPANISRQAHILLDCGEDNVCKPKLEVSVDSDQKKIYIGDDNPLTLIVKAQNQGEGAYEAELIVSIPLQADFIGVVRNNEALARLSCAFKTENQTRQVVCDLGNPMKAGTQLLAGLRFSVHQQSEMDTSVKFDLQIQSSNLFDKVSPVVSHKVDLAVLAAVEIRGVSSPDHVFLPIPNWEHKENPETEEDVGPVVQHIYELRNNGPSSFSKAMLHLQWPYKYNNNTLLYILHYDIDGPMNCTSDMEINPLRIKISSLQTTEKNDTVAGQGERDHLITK
αVβ3 integrin, sequence (P06756 891-1048 partner limits assumed): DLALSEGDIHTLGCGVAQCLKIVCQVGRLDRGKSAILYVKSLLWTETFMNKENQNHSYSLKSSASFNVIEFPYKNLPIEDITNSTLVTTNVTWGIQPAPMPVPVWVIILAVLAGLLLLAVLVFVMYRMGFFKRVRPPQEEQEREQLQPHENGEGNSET
αVβ3 integrin, sequence (P05106 27-788): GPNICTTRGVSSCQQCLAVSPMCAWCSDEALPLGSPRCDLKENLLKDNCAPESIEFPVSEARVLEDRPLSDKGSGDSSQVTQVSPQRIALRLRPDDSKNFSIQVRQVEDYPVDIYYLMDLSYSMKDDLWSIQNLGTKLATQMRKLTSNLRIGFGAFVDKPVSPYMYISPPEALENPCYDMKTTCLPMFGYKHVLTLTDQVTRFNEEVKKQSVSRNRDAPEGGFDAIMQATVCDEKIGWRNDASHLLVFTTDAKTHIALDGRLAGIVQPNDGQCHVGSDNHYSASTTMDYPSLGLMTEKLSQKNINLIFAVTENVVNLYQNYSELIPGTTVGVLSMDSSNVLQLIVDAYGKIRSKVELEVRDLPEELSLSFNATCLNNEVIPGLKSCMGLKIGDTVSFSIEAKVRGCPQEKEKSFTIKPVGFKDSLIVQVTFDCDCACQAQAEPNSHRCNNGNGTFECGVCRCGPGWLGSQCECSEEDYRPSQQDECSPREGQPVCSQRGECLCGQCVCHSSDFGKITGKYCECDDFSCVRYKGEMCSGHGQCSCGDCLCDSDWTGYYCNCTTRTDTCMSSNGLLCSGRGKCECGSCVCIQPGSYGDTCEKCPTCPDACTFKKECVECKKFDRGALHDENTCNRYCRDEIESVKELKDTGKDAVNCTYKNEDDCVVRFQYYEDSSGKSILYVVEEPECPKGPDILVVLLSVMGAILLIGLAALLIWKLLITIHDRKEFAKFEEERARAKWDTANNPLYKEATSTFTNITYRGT

Substance	identified target: α5β1 integrin (α5β1 integrin)	VEGF induced neovascularization and leakage [1]	identified target: αVβ3 integrin (αVβ3 integrin)	inhibition of signaling from HGFR (c-met) [2]	inhibition of signaling from IGFR [3]	growth of orthotopic TNBC xenografts ([4]; FIG. 4)	tumor vasculature / neovascularization in orthotopic TNBC xenografts ([4]; FIG. 5)	inhibition of signaling from PDGFR [5]	vascular leakage [6]	retinal detachment ([6]; FIG. 2)	growth of glioblastoma xenografts (glioblastoma xenografts)	growth of SCLC xenografts [7]	vascular leakage (sodium fluorescein fluorescence in the eye) [8]	inhibition of signaling from VEGFR [9]	PDI [10]	Z-Average [10] [nm·days]
LRRFSTAPFAFIDINDVINF [P07]	identified to be the α5β1 and αVβ3 integrins	strongly inhibits	identified to be the α5β1 and αVβ3 integrins	inhibit signaling	inhibit signaling	inhibits the growth; also recorded: dose dependent manner	dramatically diminished vasculature; also recorded: inhibits neovascularization	inhibit signaling	inhibit vascular leakage	almost completely blocked retinal detachment	inhibits the growth	inhibits the growth	dramatically inhibited	inhibit signaling	–	–
PLGA-PEG-P07: nanoparticles made completely of PLGA-PEG-P07 conjugated polymer (LRRFSTAPFAFIDINDVINF)	–	–	–	–	–	–	–	–	–	–	–	–	–	–	0.29	77.59 ± 2.65
